These results are taken from patent US10329235B2, “System and method for producing 1,4-cyclohexanedimethanol and 1,4- cyclohexanedicarboxylic acid from terephthalic acid” (ClearWaterBay CHDM Technology Limited, priority 2017, dated 2019).

Data set [1] in a line: Dissolution of TPA and CHDA in water in stirred autoclave (Examples 1-3). In kind it is physicochemical. As to conditions: Examples 1-3: 1.7-1.9 wt % TPA, 28.1-48.2 wt % CHDA, 50-70 wt % water, 170-190 °C, 10 MPa, 15 minutes. The protocol: These examples are provided to highlight and validate the use of the method based on the dissolution chart for setting solvent and recirculation flows. For each of these examples, a slurry was prepared in a stirred autoclave, by mixing pre-determined amounts of water, TPA in powder form, and CHDA (22% trans) in powder form. The autoclave was then pressurized to 10 MPa using nitrogen gas and the temperature was then raised to the pre-determined level. Samples were drawn after 15 minutes of operation at this temperature level and analyzed to determine the compositions of TPA and CHDA. The predetermined feed mixture compositions and the pre-determined temperature levels for these experiments are shown in Table 1 below. Each pre-determined feed mixture composition is chosen such that it very closely corresponds to water/TPA and recirculation/TPA flow ratios that may be used in actual operation according to the preferred values from FIG. 6.

Data set [2] is described as follows: Solubility of TPA in water. In kind it is physicochemical. An excerpt: Based on this, it is clearly evident that it will be beneficial to have processes for production of CHDM and CHDA directly from TPA without going through an intermediate TPA derivative. As noted initially, the main hurdle for such processes is getting TPA into the liquid phase.

Each structure is given as a SMILES string.

On to `O=C(O)C1CCC(C(=O)O)CC1` (centres unmarked) [CHDA, 1,4-cyclohexanedicarboxylic acid], for which the “Dissolution in water/TPA/CHDA mixture” value in data set [1] was “completely dissolved”.
On to `O=C(O)c1ccc(C(=O)O)cc1` [TPA, terephthalic acid], for which the “Dissolution in water/TPA/CHDA mixture” value in data set [1] is on record as “completely dissolved”. The “TPA Solubility” value was 0.0022 wt fraction in data set [2] (150 °C), 0.016 wt fraction in data set [2] (200 °C) and 0.11 wt fraction in data set [2] (250 °C).
